Data as given in PMC8397403, “Physiologically Based Pharmacokinetic Modeling of Transporter-Mediated Hepatic Disposition of Imaging Biomarker Gadoxetate in Rats” (Molecular Pharmaceutics, 2021).
Where two headings read alike, the source gives them in different places. Each block holds one compound with its values, some of them ahead of it.

Assays:
[1] = Pitavastatin uptake in plated rat hepatocytes with and without rifamycin SV (positive control for transporter activity); format: in vitro ADME; settings: male, Sprague-Dawley, rat, plated primary rat hepatocytes; pitavastatin 0.2 μM, absence of rifamycin SV, 0.5-2 min; mean (CV 24%); read-out: Unbound intrinsic uptake clearance (CLint,u)
Description: (§1) Male adult Sprague-Dawley rats (Charles River, Margate, Kent, UK) were housed in groups of two in individually ventilated cages with free access to food (Chow rat and mouse diet) and fresh drinking water. The designated rat housing facility maintained a controlled temperature (20 ± 3 °C), humidity (40–70%), and 12 h light/dark cycle conditions. All animal protocols were approved by the University of Manchester review committee and adhered to the UK Home Office Animals (Scientific Procedures) Act (1986). Rats (250–300 g) were sacrificed using CO2 overdose followed by cervical dislocation in the morning of the study day. The kinetics experiment, as described below, was performed using n = 4 animals. […] Following sample preparation including addition of internal standard (Table S1), gadoxetate and pitavastatin in cell samples, and gadoxetate in media samples, were quantified by liquid chromatography–tandem mass spectrometry (LC–MS/MS). LC–MS/MS quantification was performed using selective reaction monitoring (SRM) against calibration standards; only standards within 30% of nominal concentration were included. The protein content of plated rat hepatocytes was measured using the Pierce BCA Protein Assay Kit (Thermo Fisher Scientific, Paisley, UK). […]

[2] = tested on: active uptake transport of gadoxetate into the liver; experiment: Simultaneous PBPK fitting of gadoxetate DCE-MRI data in control and rifampicin phases; format: in vivo, rat; settings: Rattus norvegicus
Description: DCE–MRI data generated using the 3D Fast Low Angle Shot RF-spoiled gradient echo sequence (FLASH) protocol in male Wistar-Han rats were used for assessing the PBPK IVIVE performances and for obtaining some of the PBPK parameters within the bottom-up and top-down approaches, respectively. The DCE–MRI data were acquired in a multicenter study at two magnetic field strengths, 4.7 and 7 T. Gadoxetate was administered at a dose of 25 μmol/kg, either alone or 1 h after IV administration of 10 mg/kg rifampicin. When gadoxetate was administered alone (control arm), 43 profiles of blood, spleen, and liver measured at a field strength of 4.7 T and 52 profiles of blood, spleen, and liver measured at 7 T were available. In the case of gadoxetate administered with rifampicin, 7 blood, spleen, and liver profiles at a field strength equal to 4.7 T and 6 at 7 T were available. All gadoxetate DCE–MRI data and study protocols are detailed in a companion paper (Hines et al. in submission).
The DCE–MRI data used in this study were reported as ΔR1. Therefore, the relationship between the compartmental concentrations represented by the PBPK model state variables and the ΔR1 measurements for the blood, liver, and spleen needed to be described. The linear relationship in eq 4 is not valid for ΔR1 of the liver, ΔR1,liv, because intracellular and extracellular tissue compartments have different relaxivities. To derive ΔR1,liv, a volume fraction-weighted mean of the contributions of the gadoxetate concentration in all the compartments used to model the liver was performed.[40] In the spleen, the entire distribution space was supposed to have the same relaxivity as blood and, therefore, eq 4 can be applied directly to derive spleen concentrations from ΔR1,spl. Concerning the blood, the blood value for r1 in Table 1 allows ΔR1,b to be directly related to the blood concentration. The relations between ΔR1,liv, ΔR1,spl, and ΔR1,b and the concentrations of the PBPK compartments are shown in eq 7. [drawing 7] 7 cspl,extr is the extracellular concentration in the spleen and Vspl,extr is the extracellular volume of the spleen and Vliv and Vspl are the whole volumes of liver and spleen. r1,liv,extr and r1,spl,extr were assumed to be equal to r1,b, as described in Hines et al.
In fact, each of the data are acquired during a time interval Δt, which was 57 s in the current dataset. To account for this characteristic when performing the parameter estimation, the residuals were calculated as the difference of the observed ΔR1 corresponding to a given time interval minus the mean of the simulated PBPK ΔR1 within the same interval, as explained in the Supporting Information, Section 4.
The extent of interaction with rifampicin was estimated by performing a simultaneous fitting of gadoxetate ΔR1 in the control and inhibitory phase. In this analysis, PS was considered the same for both phases, whereas the other parameters were separately estimated in the absence (CLactive and CLbiliary) and in the presence of rifampicin (CLactive,inh and CLbiliary,inh). CLbiliary,inh was considered to account for possible inhibition of Mrp2 in rat by rifampicin, as previously reported.[45] To understand the impact of the inclusion of the liver-imaging data on the parameter optimization, the simultaneous estimation was also performed considering only the blood data.
All the PBPK analyses were performed in MATLAB R2020a,[50] the ordinary differential equations were solved with the function “ode15s”, while the parameter optimization was performed with the function “lsqnonlin”. The uncertainty of the parameters estimate was evaluated with the case-bootstrap,[51] using 1000 samples.

plated rat hepatocytes = experiment: Pitavastatin uptake in plated rat hepatocytes with and without rifamycin SV (positive control for transporter activity); format: in vitro ADME; settings: 100 μM rifamycin SV; pitavastatin 0.2 μM; mean (CV 23%)
Description: as §1

hepatocyte CLint at 0.2 μM [1]: 95.7 µL/min/1e6 cells
SMILES: O=C(O)C[C@H](O)C[C@H](O)/C=C/c1c(C2CC2)nc2ccccc2c1-c1ccc(F)cc1 [pitavastatin]

SMILES: CO[C@H]1/C=C/O[C@@]2(C)Oc3c(C)c(O)c4c(O)c(c(/C=N/N5CCN(C)CC5)c(O)c4c3C2=O)NC(=O)/C(C)=C\C=C\[C@H](C)[C@H](O)[C@@H](C)[C@@H](O)[C@@H](C)[C@H](OC(C)=O)[C@@H]1C [rifampicin]
inhibition at 10 mg/kg ([2]; iv, rifampicin i.v. 10 mg/kg, fit with blood, spleen and liver data, read-out: inhibition of gadoxetate CLactive (active uptake into the liver)): 96%
inhibition at 10 mg/kg ([2]; rifampicin 10 mg/kg, only blood ΔR1 profiles (without liver data), read-out: inhibition of gadoxetate CLactive, blood ΔR1 only): 84%

SMILES: CO[C@H]1/C=C/O[C@@]2(C)Oc3c(C)c(O)c4c(O)c(cc(O)c4c3C2=O)NC(=O)/C(C)=C\C=C\[C@H](C)[C@H](O)[C@@H](C)[C@@H](O)[C@@H](C)[C@H](OC(C)=O)[C@@H]1C [rifamycin SV]
reduction of the uptake of pitavastatin (plated rat hepatocytes): 54%
